Laboratory results published in patent US8178506B2, “Oligomeric compounds and compositions for use in modulation of small non-coding RNAs” (Regulus Therapeutics Inc., priority 2003, dated 2012).
In the oligonucleotide strings, read from the 5' end, every base follows the letter of its sugar. An asterisk marks phosphorothioate; unmarked linkages are phosphodiester. Other units and linkages are bracketed, terminal groups are in braces. A string of capitals states the bases alone. e = 2'-O-(2-methoxyethyl) (MOE); [5mC] = 5-methylcytosine

Tests used:
HSL = HSL mRNA expression in adipocytes (real-time PCR); format: cell-based, human; conditions: for HSL (mRNA expression): adipocytes, 250 nM oligomeric compound, day nine post-transfection, relative to control (1.0); for HSL mRNA: differentiating adipocytes transfected with oligomeric compound
adipocytes = experiment: Triglyceride accumulation assay in adipocytes; format: cell-based, human
PPARγ = PPARγ mRNA expression in adipocytes (real-time PCR); format: cell-based, human; conditions: for PPAR gamma (mRNA expression): adipocytes, 250 nM oligomeric compound, day nine post-transfection, relative to control (1.0); for PPAR gamma mRNA: differentiating adipocytes transfected with oligomeric compound
Glut4 = Glut4 mRNA expression in adipocytes (real-time PCR); format: cell-based, human; conditions: for Glut4 (mRNA expression): adipocytes, 250 nM oligomeric compound, day nine post-transfection, relative to control (1.0); for GLUT4 mRNA: differentiating adipocytes transfected with oligomeric compound
HuVECs = experiment: Endothelial tube formation assay in HuVECs; conditions: 75 nM oligomeric compound
aP2 = aP2 mRNA expression in adipocytes (real-time PCR); format: cell-based, human; conditions: for AP2 (mRNA expression): adipocytes, 250 nM oligomeric compound, day nine post-transfection, relative to control (1.0); for aP2 mRNA: Table 75
[1] = adipocytes, 250 nM oligomeric compound, relative to control (1.0), Table 15
[2] = adipocytes, 250 nM oligomeric compound, relative to control (1.0), Table 16
[3] = differentiating adipocytes transfected with oligomeric compound, Table 75
[4] = differentiating adipocytes transfected with oligomeric compound

Substance | HSL (mRNA expression) (HSL; Table 15) | TG (triglyceride accumulation) (adipocytes; [1]) | PPAR gamma (mRNA expression) (PPARγ; Table 15) | Glut4 (mRNA expression) (Glut4; Table 15) | AP2 (mRNA expression) (aP2; Table 15) | HSL mRNA (HSL; Table 75) | TG (triglyceride accumulation) (adipocytes; [3]) | PPAR gamma mRNA (PPARγ; Table 75) | GLUT4 mRNA (Glut4; Table 75) | % Activity Relative to UTC (tube formation) (HuVECs; Table 57) [%] | aP2 mRNA (aP2; [4]) | further results
327941 (antisense eA*eA*e[5mC]*e[5mC]*e[5mC]*eA*e[5mC]*e[5mC]*eG*eA*e[5mC]*eA*eG*e[5mC]*eA*eA*eT*eG*eA*eA*eT*eG*eT*eT) [compound 327941] | 1.73 | 1.31 | 0.80 | 2.07 | 1.78 | – | – | – | – | – | – | HSL (mRNA expression) (HSL; Table 16): 0.81; TG (triglyceride accumulation) (adipocytes; [2]): 0.42; PPAR gamma (mRNA expression) (PPARγ; Table 16): 0.86; Glut4 (mRNA expression) (Glut4; Table 16): 0.44; % Activity Relative to UTC (tube formation) (HuVECs; Table 58): 74.1%; AP2 (mRNA expression) (aP2; Table 16): 0.88
327906 (antisense eT*e[5mC]*eA*eT*eA*eG*e[5mC]*e[5mC]*e[5mC]*eT*eG*eT*eA*e[5mC]*eA*eA*eT*eG*e[5mC]*eT*eG*e[5mC]*eT) [compound 327906] | – | – | – | – | – | 37 percentage of untreated control (UTC) | 25 percentage of untreated control (UTC) | 50 percentage of untreated control (UTC) | 14 percentage of untreated control (UTC) | 69.0 | 46 percentage of untreated control (UTC) | –
327913 (antisense eA*eA*e[5mC]*e[5mC]*eG*eA*eT*eT*eT*e[5mC]*eA*eA*eA*eT*eG*eG*eT*eG*e[5mC]*eT*eA*eG) [compound 327913] | 0.92 | 0.59 | 0.72 | 0.84 | 0.99 | – | – | – | – | 69.0 | – | –
327923 (antisense eG*eA*eA*eA*eG*eA*eG*eA*e[5mC]*e[5mC]*eG*eG*eT*eT*e[5mC]*eA*e[5mC]*eT*eG*eT*eG*eA) [compound 327923] | – | – | – | – | – | 64 percentage of untreated control (UTC) | 88 percentage of untreated control (UTC) | 77 percentage of untreated control (UTC) | 54 percentage of untreated control (UTC) | 48.3 | 65 percentage of untreated control (UTC) | –
327916 (antisense eT*eG*eG*e[5mC]*eA*eT*eT*e[5mC]*eA*e[5mC]*e[5mC]*eG*e[5mC]*eG*eT*eG*e[5mC]*e[5mC]*eT*eT*eA*eA) [compound 327916] | – | – | – | – | – | 64 percentage of untreated control (UTC) | 56 percentage of untreated control (UTC) | 71 percentage of untreated control (UTC) | 51 percentage of untreated control (UTC) | 96.6 | 67 percentage of untreated control (UTC) | –
327934 (antisense eG*eG*eT*eA*e[5mC]*eA*eA*eT*e[5mC]*eA*eA*e[5mC]*eG*eG*eT*e[5mC]*eG*eA*eT*eG*eG*eT) [compound 327934] | 1.02 | 0.99 | 0.97 | 1.22 | 1.20 | – | – | – | – | – | – | HSL (mRNA expression) (HSL; Table 16): 0.64; TG (triglyceride accumulation) (adipocytes; [2]): 0.62; PPAR gamma (mRNA expression) (PPARγ; Table 16): 0.72; Glut4 (mRNA expression) (Glut4; Table 16): 0.44; % Activity Relative to UTC (tube formation) (HuVECs; Table 58): 51.9%; AP2 (mRNA expression) (aP2; Table 16): 0.66
327904 (antisense eA*e[5mC]*eT*e[5mC]*eA*e[5mC]*e[5mC]*eG*eA*e[5mC]*eA*eG*e[5mC]*eG*eT*eT*eG*eA*eA*eT*eG*eT*eT) [compound 327904] | – | – | – | – | – | – | – | – | – | 89.7 | – | HSL mRNA (HSL): 42 percentage of untreated control (UTC); TG (triglyceride accumulation) (adipocytes; [4]): 56 percentage of untreated control (UTC); PPAR gamma mRNA (PPARγ): 54 percentage of untreated control (UTC); GLUT4 mRNA (Glut4): 40 percentage of untreated control (UTC); AP2 mRNA (aP2; [4]): 65 percentage of untreated control (UTC)
